Measurements published in patent US10118926B2, “Tricyclic quinoline and quinoxaline derivatives” (AbbVie Deutschland GmbH & Co. KG, priority 2012, dated 2018).
Structures can show the parent of a compound that is named as a salt.

Molecular target: T1, 5-HT2C receptor (Homo sapiens, UniProt P28335)
T1 construct: β-galactosidase enzyme-complementation fragment (ProLink-type donor); host or cells: U2OS
Assay: Functional activity: beta-arrestin2 recruitment to the 5-HT2C receptor in U2OS_HTR2C_β-Arrestin cells (DiscoverX)
Format: cell-based
Conditions: for % efficacy / Emax: relative efficacy: response as percentage of response to 10 μM 5-HT or maximal effect induced by 5-HT (defined as 100%); for EC50: U2OS_HTR2C_β-Arrestin cells, 1.5 h incubation, chemiluminescent β-galactosidase complementation readout, read-out: Potency (EC50) in functional assay
Experimental: The functional activity of compounds of formula I was assayed by incubation with U2OS_HTR2C_β-Arrestin cells (DiscoverX, 93-0289C3) to induce beta-arrestin2 recruitment to the 5-HT2C receptor. The agonist-induced recruitment and proximity of the receptor and beta-arrestin2 leads to complementation and formation of active β-galactosidase. The enzyme complementation results in enzyme activity, which is measured following the termination of the agonist incubation using DiscoveRx's detection reagent, which contains a chemiluminescent substrate which produces a high intensity signal. Cells were plated and a medium-change to a 1% serum containing medium was performed 24 h later. The next day, test compounds were added and incubated for 1.5 h before addition of detection reagent.
The response produced was measured and compared with the response produced by 10 [mu]M 5-HT or the maximal effect induced by 5-HT (defined as 100%) to which it was expressed as a percentage response (relative efficacy). Dose response curves were constructed using Graphpad Prism (Graph Software Inc.) or using in house adapted software using a 4 parameter dose response model with variable slope (fit=(Bottom+(Top−Bottom)/(1+10^((Log EC50−x)*HillSlope))res=(y−fit)). Results are compiled in the table below.

T1 sequence (P28335 33-458): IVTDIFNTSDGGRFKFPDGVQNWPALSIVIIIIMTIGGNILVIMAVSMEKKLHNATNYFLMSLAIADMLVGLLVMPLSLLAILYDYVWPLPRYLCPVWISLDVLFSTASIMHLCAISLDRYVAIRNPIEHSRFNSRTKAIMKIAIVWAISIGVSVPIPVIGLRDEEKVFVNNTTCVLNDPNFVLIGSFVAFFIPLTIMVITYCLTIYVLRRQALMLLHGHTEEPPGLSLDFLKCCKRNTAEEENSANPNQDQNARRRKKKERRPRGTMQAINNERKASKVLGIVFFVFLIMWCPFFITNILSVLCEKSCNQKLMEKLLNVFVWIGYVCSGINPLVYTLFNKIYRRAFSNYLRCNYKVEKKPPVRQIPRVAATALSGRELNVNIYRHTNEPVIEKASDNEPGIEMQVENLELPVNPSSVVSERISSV
T1 sequence (P32121 whole entry partner, the tested form may be a part): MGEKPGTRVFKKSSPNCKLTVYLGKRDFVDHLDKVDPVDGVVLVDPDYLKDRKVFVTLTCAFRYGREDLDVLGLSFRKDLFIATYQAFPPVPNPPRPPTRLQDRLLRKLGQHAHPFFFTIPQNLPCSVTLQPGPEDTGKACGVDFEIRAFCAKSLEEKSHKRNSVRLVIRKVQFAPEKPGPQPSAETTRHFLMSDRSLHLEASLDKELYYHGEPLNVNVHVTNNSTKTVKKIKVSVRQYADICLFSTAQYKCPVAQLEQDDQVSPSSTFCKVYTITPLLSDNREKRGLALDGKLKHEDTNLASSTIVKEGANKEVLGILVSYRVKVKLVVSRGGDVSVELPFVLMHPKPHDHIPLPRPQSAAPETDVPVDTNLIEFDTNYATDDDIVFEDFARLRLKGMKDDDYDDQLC

SMILES | % efficacy [%] | EC50 [nM] | Emax [%]
CC1(C(F)(F)F)CCN2CCNCc3cccc1c32 (single isomer, unassigned) [Example 8, 8-Methyl-8-(trifluoromethyl)-2,3,4,6,7,8-hexahydro-1H-[1,4]diazepino [6,7,1-ij]quinoline] | 40 | – | –
CC1(C(F)(F)F)CCN2CCNCc3cccc1c32 (single isomer, unassigned) [Example 9, 8-Methyl-8-(trifluoromethyl)-2,3,4,6,7,8-hexahydro-1H-[1,4]diazepino [6,7,1-ij]quinoline] | 61 | – | –
CC1CN2CCNCc3cccc(c32)C1(C)C (single isomer, unassigned) [Example 27, Enantiomer of 7,8,8-trimethyl-1,2,3,4,7,8-hexahydro-6H-[1,4]diazepino[6,7,1-ij]quinoline]] | 87 | – | –
CC1CN2CCNCc3cccc(c32)C1(C)C (single isomer, unassigned) [Example 28, Enantiomer of 7,8,8-trimethyl-1,2,3,4,7,8-hexahydro-6H-[1,4]diazepino[6,7,1-ij]quinoline]] | 55 | – | –
CCC1(C)CCN2CCNCc3cccc1c32.O=C(O)C(F)(F)F (single isomer, unassigned) [Example 54, One enantiomer of 8-ethyl-8-methyl-2,3,4,6,7,8-hexahydro-1H-[1,4]diazepino[6,7,1-ij]-quinoline, trifluoroacetic acid] | 24 | 200 to 1000 | –
CCC1(C)CCN2CCNCc3cccc1c32.O=C(O)C(F)(F)F (single isomer, unassigned) [Example 55, Other enantiomer of 8-ethyl-8-methyl-2,3,4,6,7,8-hexahydro-1H-[1,4]diazepino[6,7,1-ij]quinoline, trifluoroacetic acid] | 26 | 200 to 1000 | –
CC1(C)CCN2CCNCc3cccc1c32 [Example 1, 8,8-Dimethyl-2,3,4,6,7,8-hexahydro-1H-[1,4]diazepino[6,7,1-ij]quinoline] | – | – | 71
c1cc2c3c(c1)C1(CCCC1)CCN3CCNC2 [Example 6, 1,2,3,4,6,7-Hexahydrospiro[[1,4]diazepino [6,7,1-ij]quinoline-8,1′-cyclopentane]] | – | – | 63
c1cc2c3c(c1)N1CCC[C@@H]1CN3CCNC2 [Example 16, (R)-5,6,7,9,9a,10,11,12-Octahydro-4H-[1,4]diazepino[1,7,6-de]pyrrolo[1,2-a]quinoxaline (2,2,2-trifluoroacetate)] | – | – | 55
c1cc2c3c(c1)N1CCC[C@H]1CN3CCNC2 [Example 17, (S)-5,6,7,9,9a,10,11,12-Octahydro-4H-[1,4]diazepino[1,7,6-de]pyrrolo[1,2-a]quinoxaline (2,2,2-trifluoroacetate)] | – | – | 84
CC1(C)CCN2CCNCc3cc(Cl)cc1c32 [Example 19, 10-Chloro-8,8-dimethyl-2,3,4,6,7,8-hexahydro-1H-[1,4]diazepino [6,7,1-ij]quinoline (2,2,2-trifluoroacetate)] | – | – | 25
CC1(C)CCN2CCNCc3ccc(F)c1c32 [Example 22, 9-Fluoro-8,8-dimethyl-2,3,4,6,7,8-hexahydro-1H-[1,4]diazepino[6,7,1-ij]quinoline] | – | – | 69
c1cc2c3c(c1)C1(CCC1)CCN3CCNC2 [Example 25, 1′,2′,3′,4′,6′,7′-Hexahydrospiro[cyclobutane-1,8′-[1,4]diazepino [6,7,1-ij]quinoline], hydrochloride] | – | – | 90
Fc1ccc2c3c1C1(CCC1)CCN3CCNC2 [Example 26, 9′-Fluoro-1′,2′,3′,4′,6′,7′-hexahydrospiro[cyclobutane-1,8′-[1,4]diazepino[6,7,1-ij]quinoline], hydrochloride] | – | – | 107
c1cc2c3c(c1)N(C1CCC1)CCN3CCNC2 [Example 33, 1-Cyclobutyl-2,3,5,6,7,8-hexahydro-1H-[1,4]diazepino[1,7,6-de]quinoxaline 2,2,2-trifluoroacetate] | – | 200 to 1000 | 78
